Columns and labels:
Format in all cases: in vivo
[1] = tested on: Echinochloa crusgalli; experiment: Weeding effect in post-emergence stage (greenhouse pot spray)
Method in brief: (§1)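 Greenhouse pot plants at the 2–3 leaf stage (2 weeks after sowing) were sprayed with compound in acetone with Tween 80 and methyl oleate EC synergist (1.5 L/ha) at 500, 250, 125, 60 or 15 g a.i./ha. Fresh-weight growth control was scored 3 weeks later, averaged over three replicates.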

[2] = tested on: Setaria viridis; experiment: as above; conditions: Table 3, dose 60 g a.i./ha
Method in brief: as §1

[3] = tested on: Abutilon theophrasti; experiment: as above; conditions: for Abutilon theophrasti (activity level): Table 3, dose 60 g a.i./ha
Method in brief: as §1

[4] = tested on: Digitaria sanguinalis; experiment: as above; conditions: for Digitaria sanguinahs (activity level): Table 3, dose 60 g a.i./ha
Method in brief: as §1

[5] = tested on: Japonica rice (Huaidao No. 5); experiment: Safety test of control experiments on rice; conditions: Dose 250 g a.i./ha
Description: (§2) The activity level criteria for plant damage (i.e., growth control rate) are as follows: Comparative Experiments: [table]

[6] = tested on: Indica rice (Huanghuazhan); experiment: Safety test of control experiments on rice; conditions: Dose 250 g a.i./ha
Description: as §2

[7] = tested on: rice and Echinochloa crusgali; experiment: Herbicide selection index between rice and Echinochloa crusgali; conditions: average dose causing 10% phytotoxicity to rice divided by average dose causing 90% control efficiency to Echinochloa crusgali
[8] = tested on: Stellaria media; experiment: Weeding effect in post-emergence stage (greenhouse pot spray)
Method in brief: as §1

[9] = tested on: Amaranthus retroflexus; experiment: as above
Method in brief: as §1

SMILES | Echinochloa crusgah (activity level) ([1]; Table 2, dose 500 g a.i./ha) | Setaria viridis (activity level) [2] | Abutilion theophrasti (activity level) ([3]; Table 2, dose 500 g a.i./ha) | Abutilon theophrasti (activity level) [3] | Digitaria sanguinalis (activity level) ([4]; Table 2, dose 500 g a.i./ha) | Digitaria sanguinahs (activity level) [4] | Japonica rice (Huaidao No. 5) (plant damage level) [5] | Indica rice (Huanghuazhan) (plant damage level) [6] | Selection index between rice and Echinochloa crusgali [7] | Stellaria media (activity level) ([8]; Table 2, dose 500 g a.i./ha) | Amaranthus retroflexus (activity level) ([9]; Table 2, dose 500 g a.i./ha) | Echinochloa crusgah (activity level) ([1]; Table 2, dose 250 g a.i./ha) | Abutilion theophrasti (activity level) ([3]; Table 2, dose 250 g a.i./ha) | Digitaria sanguinalis (activity level) ([4]; Table 2, dose 250 g a.i./ha) | Stellaria media (activity level) ([8]; Table 2, dose 250 g a.i./ha) | Amaranthus retroflexus (activity level) ([9]; Table 2, dose 250 g a.i./ha)
Cc1nnc(NC(=O)c2ccc(C(F)(F)F)c([S+]([O-])CCC(F)(F)F)c2F)o1 (racemic) [Compound 1-52] | 5 (Level 5: growth control rate is above 85%) | 5 (Level 5: growth control rate is above 85%) | 5 (Level 5: growth control rate is above 85%) | 5 (Level 5: growth control rate is above 85%) | 5 (Level 5: growth control rate is above 85%) | 5 (Level 5: growth control rate is above 85%) | 0 (Level 0: growth control rate is less than 5%) | 0 (Level 0: growth control rate is less than 5%) | >5 | 5 (Level 5: growth control rate is above 85%) | 5 (Level 5: growth control rate is above 85%) | – | – | – | – | –
Cc1nnc(NC(=O)c2ccc(C(F)(F)F)c([S+]([O-])C3COC3)c2F)o1 (centres unmarked) [Compound 1-82] | 5 (Level 5: growth control rate is above 85%) | – | 5 (Level 5: growth control rate is above 85%) | – | 5 (Level 5: growth control rate is above 85%) | – | 0 (Level 0: growth control rate is less than 5%) | 0 (Level 0: growth control rate is less than 5%) | >5 | 5 (Level 5: growth control rate is above 85%) | 5 (Level 5: growth control rate is above 85%) | – | – | – | – | –
Cc1nnc(NC(=O)c2ccc(C(F)(F)F)c([S+]([O-])CC(C)C)c2F)o1 (racemic) [Compound 1-20] | – | 5 (Level 5: growth control rate is above 85%) | – | 5 (Level 5: growth control rate is above 85%) | – | 5 (Level 5: growth control rate is above 85%) | 0 (Level 0: growth control rate is less than 5%) | 0 (Level 0: growth control rate is less than 5%) | >5 | – | – | 5 (Level 5: growth control rate is above 85%) | 5 (Level 5: growth control rate is above 85%) | 5 (Level 5: growth control rate is above 85%) | 5 (Level 5: growth control rate is above 85%) | 5 (Level 5: growth control rate is above 85%)
CCCCSc1c(C(F)(F)F)ccc(C(=O)Nc2nnc(C)o2)c1F [Compound 1-13] | – | – | – | – | – | – | 0 (Level 0: growth control rate is less than 5%) | 0 (Level 0: growth control rate is less than 5%) | >5 | – | – | 5 (Level 5: growth control rate is above 85%) | 5 (Level 5: growth control rate is above 85%) | 5 (Level 5: growth control rate is above 85%) | 5 (Level 5: growth control rate is above 85%) | 5 (Level 5: growth control rate is above 85%)

Source: patent publication US20230041563A1, “N-(1,3,4-OXADIAZOL-2-YL)ARYLCARBOXAMIDES OR SALTS THEREOF, PREPARATION METHODS, HERBICIDAL COMPOSITIONS AND USES THEREOF” (priority 2018, published 2023)
